Laboratory results published in publication PMC7946228, “Discovery of novel candidates for anti-liposarcoma therapies by medium-scale high-throughput drug screening” (PLoS ONE, 2021).
Like-named read-outs stand apart in the source and are kept apart here.

Key:
liposarcoma cell lines [1] = assay: Cell cycle analysis of non-apoptotic cells (propidium iodide); format: cell-based, human; settings: growth arresting concentration, non-apoptotic fraction
Method: (§1) Cells were treated with drugs at the concentrations corresponding to previously established growth arresting concentrations and collected between 17 and 72h. Time of collection was individual for every drug/cell line combination; cells were collected after the beginning of complete growth inhibition (based on the growth curves data) but only when first signs of morphological change or cell death were visible (estimated microscopically approximately every 2h). After methanol fixation, cells were barcoded with different combinations of Pacific Blue/Pacific Orange dyes (Thermo Fisher Scientific) for different drug treatments. After mixing, cells were incubated in the TUNEL reaction mix for 1h at 37°C, according to the manufacturer’s instructions (Roche, Germany), stained with Streptavidin-Cy5 conjugated Ab and digested with RNAse. Cells were counter-stained with propidium iodide and analyzed using LSR II Flow Cytometer (BD Biosciences, NJ, USA. The data were processed with FlowJo Version 7.6.5 (Tree Star, Ashland, USA). The gating strategy is presented in Fig 3A. Cy-5 positive cells (as compared to control sample) were calculated as apoptotic. Cell cycles of non-apoptotic cells were analyzed using the built in FlowJo Cell Cycle Analysis module. Three independent biological replicates were done for each cell line/drug combination with exception of FU-DDLS-1 and T1000 –for which we only had two replicates available.

liposarcoma cell lines [2] = assay: Drug withdrawal, reversibility of growth arrest; format: cell-based, human; settings: for reversibility of growth inhibition after drug removal: 120h treatment at growth arresting concentration, then 72h without drug, except T778 with MLN9708
Method: The cellular proliferation rate was measured using the IncuCyte ZOOM live-cell imaging system (Essen Bioscience, Birmingham, UK) with the corresponding software application (version 2013BRev1). First the growth rate for each cell line was established to estimate the seeding numbers of cells corresponding to 15–30% of confluence at the start of the experiment and maximum 70% after 72h. The drug treatment was initiated approximately 18h after seeding. The proliferation rate was measured as cell confluence over time through the acquisition of photographs under phase contrast every third hour for the entire duration of the drug treatment. During the drug treatment, media were not changed, and cells were not split. The growth reducing drug concentration was defined as lowest drug concentration leading to significant decrease of cellular growth between 40 and 72h after start of treatment. To determine that concentration, plots were generated using IncuCyte software and differences in growth between 40 and 72h were calculated using least-square means with the ‘emmeans’ R package version 1.4.3 [25]. Growth arresting concentrations were defined as minimal drug concentration under which cell confluence between 96 and 120h increases by less than 3%. Though growth arrest occurred much earlier, these time points ensured that the growth arrest is a stable phenomenon. These growth arresting concentrations were used for drug withdrawal, apoptosis and cell cycle experiments. All the data were verified with the plots. The presented values correspond to median values from two (T449, all compounds) to five (all cell lines, triptolide) biological replicates.
An important prerequisite for clinical implementation of these compounds as treatment for liposarcoma is irreversibility of the induced growth inhibition. We thus assessed if the drugs were only transiently cytostatic, which is especially important in case of the compounds that seem to work mainly via cell cycle arrest (APO866, GSK2126458). Cells were treated with the compounds at growth arresting concentrations for 120h after which the compounds were removed and cell numbers were monitored for another 72h. […] To irreversibly arrest cell proliferation GSK2126458 had to be used at 10x higher concentrations (100x for GOT3) (S5 Fig). Those concentrations are above physiological ranges (see Table 2), and these effects should be accounted for assessing use of GSK2126458 in clinic.

[3] = test system: cancer cells isolated from primary liposarcoma tumors; assay: Ex vivo cultures of patient-derived tumor cells, ATP viability 72h; format: cell-based, human; settings: 1 nM to 10 μM, patients 1-3
Method: 349 compounds from anti-cancer Selleck Chemical library were pre-aliquoted at five concentrations, increasing in 10-fold steps from 1 nM to 10 μM, in 384-well plates using an Echo Liquid Handler. Each plate also contained positive (benzethonium chloride, BzCl) and negative (DMSO only) controls. Additional drugs were added manually to the same plates at the same concentration range. Cells were seeded directly into the plates containing the drugs. After 72h viability was assessed through levels of ATP, with Cell Titer Glow assay (Promega, Wisconsin, United States) and luminescence quantified using a […]. Data from drug screens were analyzed with R version 3.4.0 (R_Core_Team, 2017) normalized to median positive (BzCl) and median negative (DMSO) controls using formula: (drug-BzCl)/(DMSO–BzCl), with total viability calculated as the area under the curve over all five drug concentrations, adjusted using qualitatively constrained quantile smoothing splines, R package ‘cobs’ version 1.3–3 [22]. The raw values of positive (BzCl) and median negative (DMSO) controls on each assay plate were aggregated and used to calculate z’-factors, as a measure of assay performance and data quality, with a z’-factor > 0.5 representing acceptable data. For two cases where the z’-factor was below 0.5, strictly standardized mean difference (SSMD) was additionally calculated, giving the population value (β) of SSMD -4 and -5, respectively, indicating good quality. Data visualization was done in R using ‘ComplexHeatmaps’ package version 1.20.0 [24]. The same assay was also used when assessing viability of non-tumor cells and tumor explants.
Explants of tumors from patients with liposarcoma were made using Tumor Dissociation Kit and gentleMACS Dissociator (both Miltenyi Biotec, Germany) according to the manufacturer’s instructions. […]
Next, we tested the selected candidate drugs on cancer cells isolated from primary liposarcoma tumors that were available during the study (Fig 5, bottom panel). […] Cell viability was assessed by measuring ATP after 72h. […]

[4] = cited from earlier work
liposarcoma cell lines [5] = assay: TUNEL apoptosis assay by flow cytometry; format: cell-based, human; settings: growth arresting concentration, 17-72h, majority of cell lines
Method: as §1

| SMILES | cell cycle phase in which cells are blocked (liposarcoma cell lines [1]) | reversibility of growth inhibition after drug removal (liposarcoma cell lines [2]) | efficacy against primary tumor cells from liposarcoma patients [3] | mean steady state serum concentration (Css) ([4]; 24 patients with advanced solid malignancies) [µM] | apoptosis (increase in % of apoptotic cells) (liposarcoma cell lines [5]) | Cmax ([4]; dosing schedule recommended for phase II, patients with solid tumors) [µM] | Cmax ([4]; read-out: maximum therapeutic plasma concentration (Cmax), in humans) [µM] | concentration needed for irreversible growth arrest relative to growth arresting concentration (liposarcoma cell lines [2]; cell lines that resumed growth, 100x for GOT3 with GSK2126458) [x higher] | Css ([4]; phase I, maximum tolerated dose) [µM] | Cmax ([4]; read-out: clinically relevant concentration (Cmax or Css), values show Cmax or Css (italics), patients) [µM] |
| --- | --- | --- | --- | --- | --- | --- | --- | --- | --- | --- |
| O=C(/C=C/c1cccnc1)NCCCCC1CCN(C(=O)c2ccccc2)CC1 [APO866] | less specific arrest | irreversibly inhibited growth of all tested cell lines | most varied | 0.014 | ≤ 5% | – | – | – | – | – |
| Cn1cc(CNCC2CCN(c3ncc(C(=O)NO)cn3)CC2)c2ccccc21 [JNJ-26481585] | G1 and G2 phases | irreversibly inhibited growth of all tested cell lines | – | – | above 5% | 0.0015 to 0.014 | – | – | – | – |
| CC(C)[C@]12O[C@H]1[C@@H]1O[C@]13[C@]1(O[C@H]1C[C@H]1C4=C(CC[C@@]13C)C(=O)OC4)[C@@H]2O [Triptolide] | S phase | irreversibly inhibited growth of all tested cell lines | most efficient for all the samples | – | above 15% | – | 0.15 to 0.4 | – | – | – |
| COCCn1c2c([n+](Cc3cnccn3)c1C)C(=O)c1ccccc1C2=O [YM155] | less specific arrest | Some cell lines such as LPS141, T778 and SA-4 resumed growth | good response | – | above 5% | – | – | 10 | 0.017 | 0.017 |
